Laboratory results taken from US11000033B2, “Ketone or oxime compound, and herbicide” (NISSAN CHEMICAL CORPORATION, priority 2014, dated 2021).

Legend:
Assay type in all cases: in vivo
[1] = test system: Cyperus difformis; experiment: Test Example 3: herbicidal effect by foliage application, Wagner pot (symbol E); settings: application herbicide amount 320 g/ha
Procedure, shortened: (§1)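 Foliar spray of a water-diluted emulsion at a predetermined herbicide amount, applied to 14-day-old plants. Seedlings were raised in flooded alluvial soil (0.1–0.5 cm water) at 25–30 °C in a greenhouse. Injury was rated after 3 weeks against fixed criteria.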

[2] = test system: Abutilon theophrasti; experiment: Test Example 5: herbicidal effect by foliage application, plastic box (symbol M); settings: 320 g/ha, 3 weeks after application
Procedure, shortened: (§2)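 After sowing into sterilized diluvial soil and growing two weeks under glass at 25° C. to 30° C., seedlings receive a uniform foliar spray of diluted emulsion. Damage is judged visually three weeks on.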

[3] = test system: Stellaria media; experiment: Test Example 5: herbicidal effect by foliage application, plastic box (symbol P); settings: 320 g/ha, 3 weeks after application
Procedure, shortened: as §2

[4] = test system: corn; experiment: Test Example 4: effect on crop by soil treatment (symbol c); settings: application herbicide amount 320 g/ha
Procedure, shortened: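 Steps: fill box with sterilized diluvial soil; sow seed spot-like; cover with ~1.5 cm soil; grow in greenhouse (25° C. to 30° C.).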

[5] = test system: Echinochloa oryzacola Vasing.; experiment: Test Example 1: herbicidal activity, application before weed generation in submerged conditions (symbol A); settings: application herbicide amount 320 g/ha
Procedure, shortened: (§3)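 Compound emulsion was diluted to a set herbicide amount and applied to the water surface on the sowing day, into submerged (4 cm) alluvial-soil pots sown with mixed weed seeds and transplanted 2.5-leaf rice. Pots were held in a 25–30 °C greenhouse, and weeds were scored 0–5 by herbicidal ratio after 3 weeks.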

[6] = test system: rapeseed; experiment: Test Example 4: effect on crop by soil treatment (symbol g); settings: application herbicide amount 320 g/ha
Procedure, shortened: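 The test used sterilized diluvial soil. Seed was set down in spots and overlaid with about 1.5 cm of soil before growth in a greenhouse kept at 25° C. to 30° C.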

[7] = test system: Alopecurus myosuroides; experiment: Test Example 4: herbicidal effect by soil treatment (symbol J); settings: application herbicide amount 320 g/ha
Procedure, shortened: (§4)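 Seeds were sown in sterilized diluvial soil, covered with about 1.5 cm of soil, and the soil surface was sprayed with a water-diluted emulsion of the compound at a predetermined rate. Plants grew in a greenhouse at 25° C. to 30° C.; effects were scored visually 3 weeks after application.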

[8] = test system: wheat; experiment: Test Example 5: effect on crop by foliage application, plastic box (symbol e); settings: 320 g/ha, 3 weeks after application
Procedure, shortened: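 Greenhouse test at 25° C. to 30° C. Seeds of crops and weeds were spot-sown in boxes of sterilized diluvial soil under roughly 1.5 cm soil cover, then grown for foliage treatment.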

[9] = test system: Alopecurus myosuroides; experiment: Test Example 5: herbicidal effect by foliage application, plastic box (symbol J); settings: 320 g/ha, 3 weeks after application
Procedure, shortened: as §2

[10] = test system: Apera spica-venti; experiment: Test Example 5: herbicidal effect by foliage application, plastic box (symbol L); settings: 320 g/ha, 3 weeks after application
Procedure, shortened: as §2

[11] = test system: Digitaria ciliaris; experiment: Test Example 4: herbicidal effect by soil treatment (symbol F); settings: application herbicide amount 320 g/ha
Procedure, shortened: as §4

[12] = test system: directly sowed rice plant; experiment: Test Example 3: effect on crop by foliage application, Wagner pot (symbol b); settings: application herbicide amount 320 g/ha
Procedure, shortened: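 Greenhouse culture at 25–30 °C of seeded rice, Cyperus difformis, Leptochloa chinensis and Echinochloa crus-galli var. crus-galli, in alluvial soil held under 0.1–0.5 cm of water in a Wagner pot.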

[13] = test system: Scirpus juncoides; experiment: Test Example 1: herbicidal activity, application before weed generation in submerged conditions (symbol B); settings: application herbicide amount 320 g/ha
Procedure, shortened: as §3

[14] = test system: Leptochloa chinensis; experiment: Test Example 3: herbicidal effect by foliage application, Wagner pot (symbol D); settings: application herbicide amount 320 g/ha
Procedure, shortened: as §1

[15] = test system: Echinochloa crus-galli var. crus-galli; experiment: Test Example 3: herbicidal effect by foliage application, Wagner pot (symbol H); settings: application herbicide amount 320 g/ha
Procedure, shortened: as §1

Row | Structure (SMILES) | herbicidal effect on E, grade 0-5 [1] | M: Abutilon theophrasti, herbicidal effect grade [2] | c (corn) effect on crop grade [4] | Herbicidal effect grade, A: Echinochloa oryzacola Vasing. [5] | g (rapeseed) effect on crop grade [6] | J (Alopecurus myosuroides) herbicidal effect grade [7] | e: wheat, effect on crop grade [8] | J: Alopecurus myosuroides, herbicidal effect grade [9] | L: Apera spica-venti, herbicidal effect grade [10] | F (Digitaria ciliaris) herbicidal effect grade [11] | effect on crop b (directly sowed rice plant), grade 0-5 [12] | Herbicidal effect grade, B: Scirpus juncoides [13] | herbicidal effect on D (Leptochloa chinensis), grade 0-5 [14] | herbicidal effect on H (Echinochloa crus-galli var. crus-galli), grade 0-5 [15] | M: Abutilon theophrasti, herbicidal effect (criteria of Test Example 1) [2] | P: Stellaria media, herbicidal effect (criteria of Test Example 1) [3] | Effect on crop grade, c: corn [4] | Effect on crop grade, g: rapeseed [6] | Herbicidal effect grade, J: Alopecurus myosuroides [7] | e: wheat, effect on crop (criteria of Test Example 1) [8] | other results
1 | CC(CC1CC(O)=C(c2c(C)cc(C)cc2C)C1=O)=NOCc1ccccc1F (stereo not shown) [1-026] | 5 (Herbicidal ratio of 90% or more (almost completely withered)) | 0 (Herbicidal ratio of 5% or lower (almost no effect)) | 0 (Herbicidal ratio of 5% or lower (almost no effect)) | 5 (Herbicidal ratio of 90% or more (almost completely withered)) | 3 (Herbicidal ratio of 40% or higher and lower than 70%) | 5 (Herbicidal ratio of 90% or more (almost completely withered)) | 2 (Herbicidal ratio of 20% or higher and lower than 40%) | 5 (Herbicidal ratio of 90% or more (almost completely withered)) | 5 (Herbicidal ratio of 90% or more (almost completely withered)) | 5 (Herbicidal ratio of 90% or more (almost completely withered)) | 5 (Herbicidal ratio of 90% or more (almost completely withered)) | 5 (Herbicidal ratio of 90% or more (almost completely withered)) | 5 (Herbicidal ratio of 90% or more (almost completely withered)) | 5 (Herbicidal ratio of 90% or more (almost completely withered)) |  |  |  |  |  |  | P: Stellaria media, herbicidal effect grade [3]: 1 (Herbicidal ratio of 5% or higher and lower than 20%)
2 | CON=C(C)CC1CC(OC(=O)C(C)(C)OC(C)=O)=C(c2c(C)cc(C)cc2C)C1=O (stereo not shown) [1-034] | 5 (Herbicidal ratio of 90% or more (almost completely withered)) | 4 (Herbicidal ratio of 70% or higher and lower than 90%) | 4 (Herbicidal ratio of 70% or higher and lower than 90%) | 5 (Herbicidal ratio of 90% or more (almost completely withered)) | 5 (Herbicidal ratio of 90% or more (almost completely withered)) | 5 (Herbicidal ratio of 90% or more (almost completely withered)) | 5 (Herbicidal ratio of 90% or more (almost completely withered)) | 5 (Herbicidal ratio of 90% or more (almost completely withered)) | 5 (Herbicidal ratio of 90% or more (almost completely withered)) | 5 (Herbicidal ratio of 90% or more (almost completely withered)) | 5 (Herbicidal ratio of 90% or more (almost completely withered)) | 4 (Herbicidal ratio of 70% or higher and lower than 90%) | 5 (Herbicidal ratio of 90% or more (almost completely withered)) | 5 (Herbicidal ratio of 90% or more (almost completely withered)) |  |  |  |  |  |  | 
3 | CON=C(C)CC1CC(OC(=O)CCC2CCCCC2)=C(c2c(C)cc(C)cc2C)C1=O (stereo not shown) [1-035] | 5 (Herbicidal ratio of 90% or more (almost completely withered)) | 4 (Herbicidal ratio of 70% or higher and lower than 90%) | 4 (Herbicidal ratio of 70% or higher and lower than 90%) | 5 (Herbicidal ratio of 90% or more (almost completely withered)) | 5 (Herbicidal ratio of 90% or more (almost completely withered)) | 5 (Herbicidal ratio of 90% or more (almost completely withered)) | 5 (Herbicidal ratio of 90% or more (almost completely withered)) | 5 (Herbicidal ratio of 90% or more (almost completely withered)) | 5 (Herbicidal ratio of 90% or more (almost completely withered)) | 5 (Herbicidal ratio of 90% or more (almost completely withered)) | 5 (Herbicidal ratio of 90% or more (almost completely withered)) | 5 (Herbicidal ratio of 90% or more (almost completely withered)) | 5 (Herbicidal ratio of 90% or more (almost completely withered)) | 5 (Herbicidal ratio of 90% or more (almost completely withered)) |  |  |  |  |  |  | 
4 | CC(=O)CC1CC(O)=C(c2c(C)cc(Oc3ccccc3)cc2C)C1=O (stereo not shown) [7-014] | 2 (Herbicidal ratio of 20% or higher and lower than 40%) |  |  |  |  |  |  |  |  |  | 5 (Herbicidal ratio of 90% or more (almost completely withered)) |  | 5 (Herbicidal ratio of 90% or more (almost completely withered)) | 4 (Herbicidal ratio of 70% or higher and lower than 90%) | 0 (Herbicidal ratio of 5% or lower (almost no effect)) | 0 (Herbicidal ratio of 5% or lower (almost no effect)) | 0 (Herbicidal ratio of 5% or lower (almost no effect)) | 0 (Herbicidal ratio of 5% or lower (almost no effect)) | 0 (Herbicidal ratio of 5% or lower (almost no effect)) | 0 (Herbicidal ratio of 5% or lower (almost no effect)) | J: Alopecurus myosuroides, herbicidal effect (criteria of Test Example 1) [9]: 0 (Herbicidal ratio of 5% or lower (almost no effect)); L: Apera spica-venti, herbicidal effect (criteria of Test Example 1) [10]: 0 (Herbicidal ratio of 5% or lower (almost no effect)); Herbicidal effect grade, F: Digitaria ciliaris [11]: 3 (Herbicidal ratio of 40% or higher and lower than 70%)
5 | CC(=O)CC1CC(O)=C(c2c(C)cc(-c3ccc(OC(F)(F)F)cc3)cc2C)C1=O (stereo not shown) [7-016] | 0 (Herbicidal ratio of 5% or lower (almost no effect)) |  |  |  |  |  |  |  |  |  | 0 (Herbicidal ratio of 5% or lower (almost no effect)) |  | 5 (Herbicidal ratio of 90% or more (almost completely withered)) | 0 (Herbicidal ratio of 5% or lower (almost no effect)) | 0 (Herbicidal ratio of 5% or lower (almost no effect)) | 0 (Herbicidal ratio of 5% or lower (almost no effect)) | 0 (Herbicidal ratio of 5% or lower (almost no effect)) | 0 (Herbicidal ratio of 5% or lower (almost no effect)) | 0 (Herbicidal ratio of 5% or lower (almost no effect)) | 0 (Herbicidal ratio of 5% or lower (almost no effect)) | J: Alopecurus myosuroides, herbicidal effect (criteria of Test Example 1) [9]: 0 (Herbicidal ratio of 5% or lower (almost no effect)); L: Apera spica-venti, herbicidal effect (criteria of Test Example 1) [10]: 0 (Herbicidal ratio of 5% or lower (almost no effect)); Herbicidal effect grade, F: Digitaria ciliaris [11]: 3 (Herbicidal ratio of 40% or higher and lower than 70%)
6 | CC(=O)CC1CC(O)=C(c2c(C)cc(-c3ncccn3)cc2C)C1=O (stereo not shown) [7-017] | 4 (Herbicidal ratio of 70% or higher and lower than 90%) |  |  |  |  |  |  |  |  |  | 5 (Herbicidal ratio of 90% or more (almost completely withered)) |  | 5 (Herbicidal ratio of 90% or more (almost completely withered)) | 5 (Herbicidal ratio of 90% or more (almost completely withered)) | 0 (Herbicidal ratio of 5% or lower (almost no effect)) | 0 (Herbicidal ratio of 5% or lower (almost no effect)) | 0 (Herbicidal ratio of 5% or lower (almost no effect)) | 0 (Herbicidal ratio of 5% or lower (almost no effect)) | 0 (Herbicidal ratio of 5% or lower (almost no effect)) | 0 (Herbicidal ratio of 5% or lower (almost no effect)) | J: Alopecurus myosuroides, herbicidal effect (criteria of Test Example 1) [9]: 2 (Herbicidal ratio of 20% or higher and lower than 40%); L: Apera spica-venti, herbicidal effect (criteria of Test Example 1) [10]: 3 (Herbicidal ratio of 40% or higher and lower than 70%); Herbicidal effect grade, F: Digitaria ciliaris [11]: 4 (Herbicidal ratio of 70% or higher and lower than 90%)
